The supplement of paper PMC8671470

Tests used:
Settings in all cases: 72 h
[1] = test system: KCL-22; test: cell viability (% survival relative to DMSO control, bortezomib = 0%); higher = less cytotoxic
Outline: (§1)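 Fifteen myeloid leukaemia cell lines (10 AML, 5 CML) were seeded at a density titrated to the linear growth range. They went into 384-well plates with compounds pre-printed at 1, 10, 100, 1000 or 10000 nM in duplicate. After 72 h at 37 °C with 5% CO2, viability was read by CellTiter-Glo luminescence. Values are percent survival, with vehicle set to 100% and a 10 µM positive control to 0%, averaged over the duplicates.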

[2] = test system: K-562; test: as above
Outline: as §1

[3] = test system: LAMA-84; test: as above
Outline: as §1

[4] = test system: MV4-11; test: as above
Outline: as §1

[5] = test system: MOLM-13; test: as above
Outline: as §1

[6] = test system: HL-60; test: as above
Outline: as §1

[7] = test system: SHI-1; test: as above
Outline: as §1

[8] = test system: KG-1; test: as above
Outline: as §1

[9] = test system: ML-2; test: as above
Outline: as §1

[10] = test system: HEL; test: as above
Outline: as §1

[11] = test system: BV-173; test: as above
Outline: as §1

[12] = test system: KCL-22
Outline: (§2)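 For the IC50, dose–response curves were fitted with a log-logistic model. The data came from fifteen myeloid leukaemia cell lines grown in RPMI 1640 at densities in the linear growth range and incubated in 384-well plates for 72 h at 37 °C under 5% CO2. Doses were five tenfold steps from 1 to 10,000 nM in duplicate, and luminescent ATP viability was normalised to vehicle and to a positive control at 10 µM before four-parameter fitting.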

[13] = test system: NOMO-1
Outline: as §2

[14] = test system: K-562
Outline: as §2

[15] = test system: LAMA-84
Outline: as §2

[16] = test system: KU-812
Outline: as §2

[17] = test system: THP-1
Outline: as §2

[18] = test system: MV4-11
Outline: as §2

[19] = test system: MOLM-13
Outline: as §2

[20] = test system: Mono-Mac-6
Outline: as §2

[21] = test system: HL-60
Outline: as §2

[22] = test system: SHI-1
Outline: as §2

[23] = test system: KG-1
Outline: as §2

[24] = test system: ML-2
Outline: as §2

[25] = test system: HEL
Outline: as §2

[26] = test system: BV-173
Outline: as §2

[27] = test system: HL-60; test: cell viability (% survival relative to DMSO control); higher = less cytotoxic
Outline: (§3)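 Four-parameter log-logistic fits in drc and PharmacoGx supplied area under the curve where it is given. Underlying viability came from CellTiter-Glo, normalised to DMSO and proteasome-inhibitor wells, with the proteasome inhibitor at 10 μM. HL-60 cells in RPMI 1640 plus 10% FBS had been rescreened against the full library at five tenfold concentrations of 1–10,000 nM, in duplicate on 384-well plates, with DMSO or 100 nM of one of three metabolic inhibitors, for 72 h at 37 °C, 5% CO2.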

[28] = test system: HL-60; test: area under dose-response curve (viability, 1 nM-10 uM) (fraction (0-1)); higher = more sensitive
Outline: as §3

C[C@H]1O[C@H](O[C@H]2[C@H](O)[C@@H](O)[C@@H](O[C@H]3[C@H](O)[C@@H](O)C(O)O[C@@H]3CO)O[C@@H]2CO)[C@H](O)[C@@H](O)[C@@H]1N[C@H]1C=C(CO)[C@@H](O)[C@H](O)[C@H]1O (mixture of isomers) [Acarbose]
Settings | area under dose-response curve, co-treatment: AZD3965 100 nM | area under dose-response curve, co-treatment: DMSO vehicle | area under dose-response curve, co-treatment: GSK2194069 100 nM | area under dose-response curve, co-treatment: pictilisib 100 nM | cell viability, 1 nM [%] | cell viability, 10 nM [%] | cell viability, 100 nM [%] | cell viability, 1000 nM [%] | cell viability, 10000 nM [%]
[1] | – | – | – | – | 116 | 117 | 112 | 86.5 | 97.2
[2] | – | – | – | – | 111 | 131 | 88.1 | 94.9 | 98.8
[3] | – | – | – | – | 93.4 | 84.7 | 108 | 92.7 | 93.4
[4] | – | – | – | – | 108 | 73 | 111 | 89.1 | 94.9
[5] | – | – | – | – | 133 | 86.7 | 106 | 95.8 | 94.9
[6] | – | – | – | – | 125 | 111 | 122 | 99.1 | 106
[7] | – | – | – | – | 116 | 120 | 99.8 | 104 | 97.7
[8] | – | – | – | – | 99.1 | 107 | 93.2 | 105 | 95.7
[9] | – | – | – | – | 104 | 102 | 103 | 94.8 | 95.8
[10] | – | – | – | – | 117 | 111 | 114 | 88.8 | 98.8
[11] | – | – | – | – | 95.6 | 99.7 | 110 | 103 | 83.4
[28] | < 0.0301 | < 0.0301 | < 0.0301 | < 0.0301 | – | – | – | – | –

Settings | IC50 (cell viability) [µM]
[12] | > 10
[13] | > 10
[14] | > 10
[15] | > 10
[16] | > 10
[17] | > 10
[18] | > 10
[19] | > 10
[20] | > 10
[21] | > 10
[22] | > 10
[23] | > 10
[24] | > 10
[25] | > 10
[26] | > 10

cell viability [%], [27]
Settings | 0.001 µM | 0.01 µM | 0.1 µM | 1 µM | 10 µM
co-treatment: AZD3965 100 nM | 112.2 | 96.77 | 99 | 99.3 | 88.1
co-treatment: DMSO vehicle | 100.2 | 98.3 | 102 | 104 | 97.771
co-treatment: GSK2194069 100 nM | 108.6 | 98.7 | 97.7 | 92.59 | 97.3
co-treatment: pictilisib 100 nM | 105 | 104 | 101 | 96.9 | 102.6

CCCC(CCC)C(=O)O [Valproic acid]
cell viability [%]
Settings | 1 nM | 10 nM | 100 nM | 1000 nM | 10000 nM
[1] | 108 | 94.1 | 96.2 | 127 | 95.5
[2] | 107 | 95.7 | 98.6 | 109 | 112
[3] | 106 | 91.7 | 96.2 | 102 | 106
[4] | 111 | 86.6 | 102 | 96.6 | 97.5
[5] | 105 | 100 | 100 | 76 | 105
[6] | 87.3 | 96.2 | 99.2 | 87.9 | 103
[7] | 106 | 94.8 | 95.9 | 92.5 | 101
[8] | 90.2 | 98.7 | 93 | 90.4 | 108
[9] | 106 | 95.6 | 93 | 99.3 | 91.5
[10] | 119 | 103 | 94.5 | 108 | 106
[11] | 88.5 | 93.5 | 87.8 | 104 | 90.6

Settings | IC50 (cell viability) [µM]
[12] | > 10
[13] | > 10
[14] | > 10
[15] | > 10
[16] | > 10
[17] | > 10
[18] | > 10
[19] | > 10
[20] | > 10
[21] | > 10
[22] | > 10
[23] | > 10
[24] | > 10
[25] | > 10
[26] | > 10

cell viability [%], [27]
Settings | 0.001 µM | 0.01 µM | 0.1 µM | 1 µM | 10 µM
co-treatment: AZD3965 100 nM | 101.96 | 103 | 94.7 | 97.8 | 106
co-treatment: DMSO vehicle | 102 | 99.9 | 98.5 | 96.68 | 105
co-treatment: GSK2194069 100 nM | 95.2 | 106 | 98.1 | 93.9 | 106
co-treatment: pictilisib 100 nM | 98.6 | 101 | 95 | 89.6 | 101
